Measured values: the supplement of paper PMC10949913

Columns and labels:
Details in all cases: 48 h
CU-ACC1 [1] = assay: AC50 viability; higher = less potent
How it was run: (§1)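 Cells from three adrenocortical carcinoma lines were seeded at 500–1,000 cells/well in 5 µL medium in 1,536-well plates. Each library compound was added as 23 nL at 11 concentrations, and after 48 h CellTiter-Glo was added for 15 minutes at room temperature before reading luminescence. Plate-wise normalisation to vehicle and empty-well controls preceded curve fitting. AC50 and area under the curve were calculated only for inhibitory or non-responding curve classes.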

NCI-H295R [2] = assay: AC50 viability; higher = less potent
How it was run: as §1

CU-ACC1 [3] = assay: area under concentration-response curve (viability) (AUC (a.u.)); higher = less active
How it was run: as §1

NCI-H295R [4] = assay: as above
How it was run: as §1

CU-ACC2 = assay: as above
How it was run: as §1

| SMILES | AC50 viability (CU-ACC1 [1]) [µM] | AC50 viability (NCI-H295R [2]) [µM] | area under concentration-response curve (CU-ACC1 [3]) | area under concentration-response curve (NCI-H295R [4]) | area under concentration-response curve (CU-ACC2) |
| --- | --- | --- | --- | --- | --- |
| Cc1c(-c2ccc(O)cc2)n(Cc2ccc(OCCN3CCCCCC3)cc2)c2ccc(O)cc12 | 29.5 | 23.5 | 496 | 508 | – |
| CCN1CCN(Cc2ccc(NC(=O)c3ccc(C)c(/C=C/c4cnc5[nH]ccc5c4OC)c3)cc2C(F)(F)F)CC1 | 9.34 | 7.42 | 461 | 471 | – |
| Clc1ccc(C(c2ccccc2Cl)C(Cl)Cl)cc1 (configuration not stated) | 18.6 | 20.9 | 426 | 432 | – |
| CC(C)Oc1ccc(C(=O)N[C@H](CNC(=O)CN(C)C)Cc2ccc(-c3cn4cccc([C@H](C)O)c4n3)cc2)cc1Cl | 16.6 | 13.2 | 424 | 427 | – |
| COC(=O)C1=C(C)NC(C)=C(C(=O)OCCN2CCN(C(c3ccccc3)c3ccccc3)CC2)C1c1cccc([N+](=O)[O-])c1.Cl.Cl (configuration not stated) | 20.9 | 11.8 | 462 | 497 | – |
| COC1=CC2=C(C=C1OC)[C@H]3[C@@H](CO2)OC4=C(C=CC5=C4\C=C/C(C)(C)O5)C3=O | 0.372 | 16.6 | 342 | 510 | – |
| CN1CCN(c2ncc(-c3cc(Cl)cc(Cl)c3Cl)c(N)n2)CC1 | 14.8 | 11.8 | 405 | 487 | – |
| C[C@@H]\1COC(=N1)\NC2=CC3=C(C=C2)N=CN=C3NC4=CC(=C(OCC5=NC=CS5)C=C4)Cl | 20.9 | 41.7 | 509 | 522 | – |
| CN(C)CCCN1c2ccccc2CCc2ccc(Cl)cc21 | 18.6 | 23.5 | 473 | 535 | – |
| Cc1cccc(-c2n[nH]cc2-c2ccc(F)c(-c3cnn(CCO)c3)c2)n1 | 5.25 | 13.2 | 284 | 308 | – |
| O=C(NCCCNc1nc(Nc2ccc(N3CCOCC3)cc2)ncc1C1CC1)C1CCC1 | 2.63 | 14.8 | 379 | 460 | – |
| Clc1cc(Cl)cc(CNc2ncncc2-c2ccc3c(c2)OCO3)c1 | 14.8 | 13.2 | 412 | 430 | – |
| COCc1c(-c2ccc(NC(=O)Nc3cc(C(F)(F)F)ccc3F)c(F)c2)c2c(N)ncnn2c1CN1CCOCC1 | 8.33 | 6.61 | 342 | 363 | – |
| O=C(Nc1cccnn1)N1CCC(=Cc2cccc(Oc3ccc(C(F)(F)F)cn3)c2)CC1 | 20.9 | 20.9 | 361 | 445 | – |
| CCOC(CN1C(=O)[C@](CC(=O)Nc2ccc(C)cc2)(NC(=O)Nc2ccc(C)cc2)c2ccccc21)OCC | 37.2 | 29.5 | 432 | 537 | – |
| CN(C)C(=O)C(CCN1CCC(O)(c2ccc(Cl)cc2)CC1)(c1ccccc1)c1ccccc1 | 16.6 | 20.9 | 506 | 549 | – |
| C[C@@H](NCCCc1cccc(C(F)(F)F)c1)c1cccc2ccccc12 | 10.5 | 13.2 | 467 | 501 | – |
| COC1=CC=C2[N](CCCN(C)C)C=C(C2=C1)C/3=C(/C(=O)NC3=O)C4=C[NH]C5=C4C=CC=C5 | 26.3 | 26.3 | 514 | 547 | – |
| C/C(=C\C(=O)Nc1ccccc1C(=O)O)c1ccc2ccccc2c1 | 7.42 | 18.6 | 451 | 449 | – |
| CC(C)C[C@H](NC(=O)c1cc2ccccc2s1)C(=O)N1CCN(C(=O)[C@H](CO)N[S+](=O)([O-])c2ccc(Cl)cc2Cl)CC1 | 16.6 | 18.6 | 445 | 494 | – |
| O=C1Nc2ccc(Cl)cc2[C@@](C#CC2CC2)(C(F)(F)F)O1 | 29.5 | 20.9 | 471 | 504 | – |
| CN1CCN(C2CCN(C(=O)Nc3cc(Oc4ccc(NC(=O)C5(C(=O)Nc6ccc(F)cc6)CC5)c(F)c4)ccn3)CC2)CC1 | 29.5 | 20.9 | 392 | 453 | – |
| CCCC\1=C(/CNC(=O)C2=CC(=CC3=C2C=N[N]3C(C)C)C4=CC(=NC=C4)N5CCN(C)CC5)C(=O)NC(=C1)\C | 18.6 | 18.6 | 478 | 501 | – |
| Cc1ccc(F)c(NC(=O)Nc2ccc(-c3cccc4[nH]nc(N)c34)cc2)c1 | 18.6 | 26.3 | 497 | 506 | – |

| SMILES | AC50 viability (CU-ACC1 [1]) [µM] | AC50 viability (NCI-H295R [2]) [µM] | area under concentration-response curve (CU-ACC1 [3]) | area under concentration-response curve (NCI-H295R [4]) | area under concentration-response curve (CU-ACC2) |
| --- | --- | --- | --- | --- | --- |
| Cc1c(CN2CCN(C(=O)[C@H](C)O)CC2)sc2c(N3CCOCC3)nc(-c3cnc(N)nc3)nc12 | 0.0295 | 2.09 | 215 | 210 | – |
| CC(C)n1cnc2c(NCCCCCCNC(=O)OC(C)(C)C)nc(NCCO)nc21 | 16.6 | 23.5 | 414 | 481 | – |
| CCC(CC)C(c1ccc(Nc2nc3ccccc3s2)cc1)n1cncn1 (configuration not stated) | 29.5 | 20.9 | 451 | 474 | – |
| O=[N+]([O-])c1ccc(O)c2ncccc12 | 11.8 | 11.8 | 482 | 483 | – |
| CN1CCN(CCCN2c3ccccc3Sc3ccc(C(F)(F)F)cc32)CC1 | 29.5 | 18.6 | 441 | 480 | – |
| C[S+](=O)([O-])c1ccc([C@@H](CC2CCCC2)C(=O)Nc2nccs2)cc1 | 18.6 | 16.6 | 379 | 393 | – |
| CC(=O)C\1=C(/C)C2=CN=C(NC3=CC=C(C=N3)N4CCNCC4)N=C2N(C5CCCC5)C1=O | 16.6 | 26.3 | 461 | 487 | – |
| CCC(=O)O[C@@]1([C@@H](C)C[C@H]2[C@@H]3CCC/4=C/C(=O)/C=C\[C@]4(C)[C@@]3(F)[C@@H](O)C[C@]12C)C(=O)CCl | 20.9 | 20.9 | 475 | 503 | – |
| Cc1[nH]c(/C=C2\C(=O)Nc3ccc([S+](=O)([O-])N(C)c4cccc(Cl)c4)cc32)c(C)c1C(=O)N1CCN(C)CC1 | 20.9 | 33.2 | 397 | 491 | – |
| CCN1CCC(n2cc(CNc3cc(Cl)c4ncc(C#N)c(Nc5ccc(F)c(Cl)c5)c4c3)nn2)CC1 | 16.6 | 23.5 | 456 | 494 | – |
| Cc1cccc(CC(=O)N2CCc3c2ccc(-c2cn(C)c4ncnc(N)c24)c3F)n1 | 4.68 | – | 487 | 551 | 644 |
| CC[C@H](C)C(=O)O[C@H]1CC\C=C2\C=C/[C@H](C)[C@H](CC[C@@H]3C[C@@H](O)CC(=O)O3)[C@@H]12 | 14.8 | – | 426 | 484 | 415 |
| O=C(O)c1ccc(O)c2ncccc12 | 33.2 | – | 458 | 447 | 491 |
| CN(C)CCOc1cc(-c2cn[nH]c2)ccc1NC(=O)C1COc2ccccc2O1 (configuration not stated) | 20.9 | – | 390 | 452 | 426 |
| CCNC(=O)c1noc(-c2cc(C(C)C)c(O)cc2O)c1-c1ccc(CN2CCOCC2)cc1 | 0.0118 | – | 226 | 198 | 114 |
| Fc1ccc(CNc2ncnc3ccc(F)cc23)cc1 | 2.35 | – | 415 | 509 | 577 |
| O=C(NC[C@H](O)CO)c1ccncc1Nc1ccc(I)cc1F | 11.8 | – | 397 | 537 | 506 |
| CN[S+]([O-])(=O)NC1=NC=CC(=C1F)CC/2=C(C)/C3=CC=C(OC4=NC=CC=N4)C=C3OC2=O | 7.42 | – | 441 | 577 | 611 |
| Nc1nccc(-c2c(-c3ccc(F)cc3)ncn2C2CCCCC2)n1 | 14.8 | – | 480 | 556 | 621 |
| Cc1nc2cnc3ccc(C#Cc4cccnc4)cc3c2n1-c1ccc(C(C)(C)C#N)cc1 | 0.661 | – | 402 | 492 | 557 |
| O=C1c2cccc(O)c2C(=O)c2c(O)cc(CO)cc21 | 10.5 | – | 508 | 575 | 656 |
| CCN(CC)CCCC[C@H](NC(=O)[C@H](CC(C)C)NC(=O)[C@H](C)NC(=O)[C@H](Cc1ccccc1)NC(=O)c1ccc(C(C)(C)C)cc1)C(=O)N[C@@H](CO)C(=O)OC | 0.0132 | – | 446 | 421 | 424 |
| OC[C@H](Cc1ccccc1)Nc1nc(Oc2ccc3c(c2)CCC3)nc2c1ncn2Cc1ccc(-c2ccccc2)cc1 | 14.8 | – | 430 | 477 | 524 |
| COC1CCN(CC1)C(=O)C2=CC(=CC=C2F)CC/3=N/NC(=O)C4=CC=CC=C34 | 0.209 | – | 441 | 423 | 457 |
